ChEMBL document CHEMBL1201862, “PubChem BioAssay data set” (2004)
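Growth conditions: 96-well plates. Treatment: test compound, 48 hours, 5 concentrations. Analysis: linear interpolation between bracketing concentrations; unreached endpoints set to highest concentration. Here, GI50 denotes the concentration required for 50% inhibition of growth.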 The source made the active and inactive calls. Rule as the data show it: active = GI50 up to about 1.1 µM and inactive = higher.

Tests used:
Assay in all cases: growth of human tumour cells (NCI), 48 h
[1] = tested on: SK-OV-3
[2] = tested on: ACHN
[3] = tested on: HT-29
[4] = tested on: EKVX
[5] = tested on: K562
[6] = tested on: MDA-N
[7] = tested on: MCF7
[8] = tested on: COLO 205
[9] = tested on: SK-MEL-28
[10] = tested on: UO-31
[11] = tested on: NCI-H460
[12] = tested on: UACC-257
[13] = tested on: NCI-H522
[14] = tested on: MDA-MB-231
[15] = tested on: SK-MEL-2
[16] = tested on: 786-0
[17] = tested on: LOX IMVI
[18] = tested on: TK-10
[19] = tested on: NCI-H226

Measured: GI50

Cc1cc(NS(=O)(=O)c2ccc(Nc3c4ccccc4nc4c(C(=O)NCCO)cccc34)cc2)no1
inactive: [1] 35.6 µM | [2] 30.2 µM | [3] 29 µM | [4] 60 µM | [5] 26.3 µM | [6] 35.8 µM | [7] 14.9 µM | [8] 32.9 µM | [9] 30.3 µM | [10] 25.2 µM | [11] 28.6 µM | [12] 75.3 µM | [13] 11.4 µM | [14] 17.9 µM | [15] 22.2 µM | [16] 30.8 µM | [17] 27.6 µM | [18] 35.6 µM

Cc1[nH]c2c(c1Cc1ccccc1)C1=NC=C(O)NN1C=N2
inactive: [1] > 100 µM | [2] 44.3 µM | [3] 80 µM | [4] > 100 µM | [19] > 100 µM | [6] > 100 µM | [7] 14.9 µM | [8] 22 µM | [9] > 100 µM | [10] > 100 µM | [11] 36.4 µM | [12] > 100 µM | [13] 43.7 µM | [14] > 100 µM | [15] > 100 µM | [16] > 100 µM | [18] 74.1 µM

O=C1NC(=O)/C(=C/c2ccc(S(=O)(=O)N/N=C\C(O)C(O)C(O)C(O)CO)cc2)N1 (stereo not given)
inactive: [1] > 100 µM | [2] > 100 µM | [3] > 100 µM | [4] > 100 µM | [5] > 100 µM | [19] > 100 µM | [6] > 100 µM | [7] > 100 µM | [8] > 100 µM | [9] > 100 µM | [10] > 100 µM | [11] > 100 µM | [12] > 100 µM | [14] > 100 µM | [15] > 100 µM | [16] > 100 µM | [17] > 100 µM | [18] > 100 µM

N#Cc1ccc(-c2nc3c(N)nc(-c4ccccc4)nc3o2)cc1
inactive: [2] 26.9 µM | [3] > 100 µM | [4] > 100 µM | [5] > 100 µM | [19] > 100 µM | [6] > 100 µM | [7] > 100 µM | [8] > 100 µM | [9] > 100 µM | [10] > 100 µM | [11] > 100 µM | [12] > 100 µM | [13] 25 µM | [14] 13.3 µM | [15] > 100 µM | [16] > 100 µM | [17] > 100 µM | [18] > 100 µM

CC(C)C1=CC(=O)[C@@](C)(C2[C@H](O)C[C@@]3(C)[C@@H]4CC=C5[C@@H](CC[C@@H](OC6OCC(O)C(O)C6OC6OC(C)C(O)C(O)C6O)C5(C)C)[C@]4(C)C(=O)C[C@]23C)O1 (stereo not given in full)
inactive: [1] > 100 µM | [2] > 100 µM | [3] > 100 µM | [4] > 100 µM | [5] > 100 µM | [19] > 100 µM | [6] > 100 µM | [7] > 100 µM | [8] > 100 µM | [9] > 100 µM | [10] > 100 µM | [11] > 100 µM | [13] > 100 µM | [14] > 100 µM | [16] > 100 µM

CN(CCCNC(=O)c1n[nH]c2c1ccc1ccccc12)CCCNC(=O)c1n[nH]c2c1ccc1ccccc12
inactive: [1] 18.1 µM | [2] 17.6 µM | [3] 14.6 µM | [4] 21.4 µM | [19] 13.4 µM | [6] 2.14 µM | [7] 15 µM | [8] 2.69 µM | [9] 2.09 µM | [10] 14.6 µM | [11] 18 µM | [12] 4.24 µM | [13] 16.8 µM | [14] 10.9 µM | [15] 10.6 µM | [16] 10.9 µM | [17] 12.5 µM | [18] 17.9 µM

CO/C=C(/C(=O)OC)c1ccccc1[C@@H]1CC1c1cccc(F)c1 (stereo not given in full)
inactive: [1] 25.5 µM | [2] 23.2 µM | [3] 30.4 µM | [4] 30.5 µM | [5] 44.2 µM | [19] 25.6 µM | [6] 22.1 µM | [7] 43.6 µM | [8] 15.7 µM | [9] 39.4 µM | [10] 31.8 µM | [11] 26.6 µM | [12] 19.9 µM | [13] 14.2 µM | [14] 29.9 µM | [15] 16.9 µM | [16] 41 µM | [18] 37.9 µM

O=C(O)CCCc1ccc2ccc3ccccc3c2c1
inactive: [2] 46.2 µM | [3] 83.9 µM | [4] > 100 µM | [5] 42.5 µM | [19] 78.2 µM | [6] > 100 µM | [7] > 100 µM | [8] 40.8 µM | [9] 81.8 µM | [10] 88.1 µM | [11] 58.3 µM | [12] 56.2 µM | [13] 39.6 µM | [14] 73.1 µM | [15] 26.7 µM | [16] > 100 µM | [17] 96.4 µM | [18] 57.4 µM
